Data published in patent publication US11052131B2, “Methods and pharmaceutical compositions for the treatment of kidney cancer” (INSERM (Institut National de la Santé et de la Recherche …, priority 2016, dated 2021).
“Also recorded” adds a separate entry of the source.

How the values were obtained:
ERK = ERK activation analysis (phospho-ERK western blot) in HEK293A GFP-APJ cells; type: cell-based, human; conditions: 1 μM; for phosphorylation of ERK: within 5 min of treatment
Protocol: (§1) Cells were lysed in RIPA buffer (150 mM NaCl, 50 mM Tris, 1 mM EDTA, 1% NP40, 0.25% sodium deoxycholate, pH8) and were subjected to SDS-PAGE on 12% gels. Cell lysates were analyzed by western blotting for ERK, AKT and P70 phosphorylation using an anti-phospho-ERK; anti-phospho-AKT and anti-phospho-P70 (Cell Signaling), respectively. The blots were stripped and reprobed with ERK, AKT or P70 (Cell Signaling) for data normalization. Primary antibodies were visualized using horseradish peroxidase-conjugated secondary antibodies (Amersham), and signals were detected using ECLPlus chemiluminescence system according to the manufacturers' instructions (Amersham).

P70s6K = experiment: P70 activation analysis (phospho-P70 western blot) in HEK293A GFP-APJ cells; type: cell-based, human; conditions: 1 μM, same conditions
Protocol: as §1

AKT = AKT activation analysis (phospho-AKT western blot) in HEK293A GFP-APJ cells; type: cell-based, human; conditions: 1 μM; for phosphorylation of AKT: seen after 5 min
Protocol: as §1

recombinant human furin = recombinant human furin (Homo sapiens, UniProt P09958); experiment: In vitro enzymatic digestion of Ela peptides with furin (western blot); type: biochemical; conditions: furin 0.2×10^−4U, 4 h, western blotting with anti-Ela antibody
Chain of recombinant human furin (P09958 108-794): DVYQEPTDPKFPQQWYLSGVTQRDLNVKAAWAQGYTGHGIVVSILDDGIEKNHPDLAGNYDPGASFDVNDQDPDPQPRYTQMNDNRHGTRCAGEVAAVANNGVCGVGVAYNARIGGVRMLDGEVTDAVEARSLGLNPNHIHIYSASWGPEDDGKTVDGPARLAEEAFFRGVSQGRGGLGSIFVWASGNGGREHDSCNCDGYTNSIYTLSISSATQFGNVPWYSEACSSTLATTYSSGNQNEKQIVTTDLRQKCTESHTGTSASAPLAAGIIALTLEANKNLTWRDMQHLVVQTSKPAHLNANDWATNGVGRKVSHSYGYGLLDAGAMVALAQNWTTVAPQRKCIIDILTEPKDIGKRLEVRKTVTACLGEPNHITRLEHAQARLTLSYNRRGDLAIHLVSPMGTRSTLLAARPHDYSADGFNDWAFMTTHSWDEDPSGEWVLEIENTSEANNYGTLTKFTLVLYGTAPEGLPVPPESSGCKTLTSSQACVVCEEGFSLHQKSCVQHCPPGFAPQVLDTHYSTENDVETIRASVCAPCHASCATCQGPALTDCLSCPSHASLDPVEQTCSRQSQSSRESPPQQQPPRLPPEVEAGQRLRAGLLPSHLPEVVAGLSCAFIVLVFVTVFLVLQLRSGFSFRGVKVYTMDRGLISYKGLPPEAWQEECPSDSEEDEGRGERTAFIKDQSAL
Protocol: FIG. 4. ProEla processing. […] As assessed by western blotting using an anti-Ela antibody, furin processes the wild-type proEla 32 at the corresponding physiological cleavage sites.
Ela peptides were digested with furin for 4 h as previously described (Sfaxi et al., 2014, Scamuffa et al., 2008) and were subjected to Western blotting analysis.
The generated in vitro enzymatic digestion products were subjected to SDS-polyacrylamide gel electrophoresis in 13% gels. The primary antibody used was an anti-Ela 11 (Eurogentec). Horseradish peroxidase-conjugated secondary antibody and enhanced chemiluminescence (ECL+Plus, Amersham) were used for primary antibody revelation according to the manufacturers' instructions using a Chemiluminescence imaging system (GeneGnome, Syngene) (Sfaxi et al., 2014, Scamuffa et al., 2008).
The cDNA structure of human ELA predicts an 54 amino acids (aa) pre-proEla. Following the removal of the 22 aa of the signal peptide the hormone is released as proEla of 32 aa. […] To study the importance of the proteolytic maturation of […] by the PCs in the mediation of its function we first assessed experimentally proEla 32 processing by furin using an in vitro digestion assay.

Renca cells [1] = experiment: Tumorigenicity assay, Renca cells injected subcutaneously into syngeneic Balb/c mice; type: in vivo; conditions: for tumor growth / tumor progression: 1×10^5 Renca cells stably expressing the construct (lentiviral), subcutaneous, vs control cells with empty vector; for tumor growth inhibition, wild type compared to mutant: subcutaneous Renca tumors, Balb/c mice
ERK signaling = experiment: mTOR signalling pathway in serum-starved RENCA cells: ERK signaling; type: cell-based, murine; conditions: lentiviral expression in RENCA cells, serum starvation
Protocol: as §1, with “RENCA cells overexpressing lentivirus encoding for wild type proEla, mutant proEla, or only tdTomato, were maintained in serum free media for different time. Cells” for “Cells”, “LC3, NFkB, Erk1/2, AKT, S6K or actin” for “ERK, AKT and P70 phosphorylation”, “anti phosphor NFkB, anti-phospho Erk, anti-phospho-Akt, anti-phospho S6K.” for “an anti-phospho-ERK; anti-phospho-AKT and anti-phospho-P70 (Cell Signaling), respectively.”
(§2) To evaluate the role of Elabela on kidney cancer progression, we used RENCA cells expressing elabela or elabela mutated at the furin site. Cells wera starved of serum for 1, 3, 6, 12 or 24 hours and the effect of Elabela on the mTOR pathway was observed by lookind at the phosphorylation or nfkB, Erk1/2, akt, or S6K.

Renca cells [2] = experiment: Proliferation assay (IncuCyte ZOOM live cell imaging); type: cell-based, murine; conditions: 2% foetal calf serum, 50 hours
Protocol: FIG. 8. RENCA (20,000 cells 4 cells/well) cells were plated in 96-well plates, proliferation assay was performed using the IncuCyte ZOOM™ live cell imaging system (Essen BioScience, MI USA). This system measures cell density. Cells are routinely propagated in RPMI 1640 medium (Life Technologies) in 2% foetal calf serum at 37° C. Cells are regularly screened for Mycoplasma (ATCC). The plate is placed into the IncuCyte ZOOM™ apparatus and images of the collective cell spreading are recorded every 2 hours for a total duration of 50 hours.

mTORC1 pathway = experiment: mTOR signalling pathway in serum-starved RENCA cells: mTORC1 (S6K and S6 phosphorylation); type: cell-based, murine; conditions: lentiviral expression in RENCA cells, serum starvation
Protocol: as §1, with “RENCA cells overexpressing lentivirus encoding for wild type proEla, mutant proEla, or only tdTomato, were maintained in serum free media for different time. Cells” for “Cells”, “LC3, NFkB, Erk1/2, AKT, S6K or actin” for “ERK, AKT and P70 phosphorylation”, “anti phosphor NFkB, anti-phospho Erk, anti-phospho-Akt, anti-phospho S6K.” for “an anti-phospho-ERK; anti-phospho-AKT and anti-phospho-P70 (Cell Signaling), respectively.”
as §2

mTORC2 signaling = experiment: mTOR signalling pathway in serum-starved RENCA cells: mTORC2 (P(473)AKT); type: cell-based, murine; conditions: lentiviral expression in RENCA cells, serum starvation
Protocol: as §1, with “RENCA cells overexpressing lentivirus encoding for wild type proEla, mutant proEla, or only tdTomato, were maintained in serum free media for different time. Cells” for “Cells”, “LC3, NFkB, Erk1/2, AKT, S6K or actin” for “ERK, AKT and P70 phosphorylation”, “anti phosphor NFkB, anti-phospho Erk, anti-phospho-Akt, anti-phospho S6K.” for “an anti-phospho-ERK; anti-phospho-AKT and anti-phospho-P70 (Cell Signaling), respectively.”
as §2

LC3II = experiment: mTOR signalling pathway in serum-starved RENCA cells: autophagy (LC3II); type: cell-based, murine; conditions: lentiviral expression in RENCA cells, serum starvation
Protocol: as §1, with “RENCA cells overexpressing lentivirus encoding for wild type proEla, mutant proEla, or only tdTomato, were maintained in serum free media for different time. Cells” for “Cells”, “LC3, NFkB, Erk1/2, AKT, S6K or actin” for “ERK, AKT and P70 phosphorylation”, “anti phosphor NFkB, anti-phospho Erk, anti-phospho-Akt, anti-phospho S6K.” for “an anti-phospho-ERK; anti-phospho-AKT and anti-phospho-P70 (Cell Signaling), respectively.”
as §2

Renca cells [3] = experiment: Wound healing assay; type: cell-based, murine; conditions: in vitro, 8 or 24 h after serum starvation
Protocol: Renca cells were cultivated until sub-confluency. A scratch is realized with a tip on each well and the wound healing is observed after 8 or 24 h after serum starvation.

Renca cells [4] = experiment: Kidney tumor progression, subcapsular inoculation of Renca cells in syngenic mice; type: in vivo; conditions: Renca cells expressing the construct (lentiviral), sub-capsular injection
Source text: FIG. 3. Effect of Elabela expression in the kidney tumor cells (Renca) on kidney tumor progression. Elabela wild type (ela wt) or control lentivirus were used to express ela wt in Renca cells prior their subcapsular inoculation in syngenic mice.

PI3K signaling = experiment: mTOR signalling pathway in serum-starved RENCA cells: PI3K (P(308)AKT); type: cell-based, murine; conditions: lentiviral expression in RENCA cells, serum starvation
Protocol: as §1, with “RENCA cells overexpressing lentivirus encoding for wild type proEla, mutant proEla, or only tdTomato, were maintained in serum free media for different time. Cells” for “Cells”, “LC3, NFkB, Erk1/2, AKT, S6K or actin” for “ERK, AKT and P70 phosphorylation”, “anti phosphor NFkB, anti-phospho Erk, anti-phospho-Akt, anti-phospho S6K.” for “an anti-phospho-ERK; anti-phospho-AKT and anti-phospho-P70 (Cell Signaling), respectively.”
as §2

NFkB signaling = experiment: mTOR signalling pathway in serum-starved RENCA cells: NFkB; type: cell-based, murine; conditions: lentiviral expression in RENCA cells, serum starvation
Protocol: as §1, with “RENCA cells overexpressing lentivirus encoding for wild type proEla, mutant proEla, or only tdTomato, were maintained in serum free media for different time. Cells” for “Cells”, “LC3, NFkB, Erk1/2, AKT, S6K or actin” for “ERK, AKT and P70 phosphorylation”, “anti phosphor NFkB, anti-phospho Erk, anti-phospho-Akt, anti-phospho S6K.” for “an anti-phospho-ERK; anti-phospho-AKT and anti-phospho-P70 (Cell Signaling), respectively.”
as §2

[5] = target: T1, human GFP-APJ fusion protein (Homo sapiens, UniProt P35414); experiment: APJ receptor internalization assay in HEK293A cells expressing GFP-APJ; type: cell-based; conditions: 1 μM peptide, 30 min, HEK293 cells expressing GFP-APJ
T1 construct: expressed in transfected cells
T1 sequence (P35414 1-380): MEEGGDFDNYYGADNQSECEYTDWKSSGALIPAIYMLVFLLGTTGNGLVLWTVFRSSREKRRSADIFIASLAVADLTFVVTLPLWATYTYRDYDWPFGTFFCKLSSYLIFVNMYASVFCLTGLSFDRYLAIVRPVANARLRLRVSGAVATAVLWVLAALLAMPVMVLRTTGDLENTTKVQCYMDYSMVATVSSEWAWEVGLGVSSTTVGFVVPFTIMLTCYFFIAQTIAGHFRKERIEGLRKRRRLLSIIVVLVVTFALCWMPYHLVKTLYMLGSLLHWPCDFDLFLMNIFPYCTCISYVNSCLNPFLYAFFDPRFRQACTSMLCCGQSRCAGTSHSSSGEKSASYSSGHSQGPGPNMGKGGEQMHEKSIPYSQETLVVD
Protocol: Cells were fixed with 4% paraformaldehyde for 10 minutes at room temperature and APJ receptor internalization was analyzed using a Nikon epifluorescence microscopy.
Ligand-induced receptor internalization is a cellular response of APJ to ligand binding and its activation.

| Substance | phosphorylation of ERK after 15 min (ERK) | phosphorylation of ERK (ERK) | P70s6K activation (P70s6K) | AKT activation compared to effect on ERK activation (AKT) | time of peak AKT phosphorylation (AKT) | phosphorylation of AKT (AKT) | ERK signaling, determined by ERK phosphorylation (ERK signaling) | mTORC2 signaling, determined by P(473)AKT (mTORC2 signaling) | induction of autophagy, estimated by LC3II levels (LC3II) | PI3K signaling, determined by P(308)AKT (PI3K signaling) | NFkB signaling (NFkB signaling) | other results |
| --- | --- | --- | --- | --- | --- | --- | --- | --- | --- | --- | --- | --- |
| QRPVNLTMRRKLRKHNCLQRRCMPLHSRVPFP [wild type proEla 32] | reduced | able to induce the phosphorylation of ERK | failed to induce significant effect | lower AKT activation while compared to their effect on ERK activation | about 15 min | weak visible phosphorylation of AKT | enhanced inhibition of ERK signaling | No effect in mTORC2 signaling | block in the induction of autophagy | No effect in PI3K signaling | No effect in NFkB signaling | ERK activation compared between the peptides (ERK; same conditions): higher as compared to mut proEla and Ela 11 effect; processing by furin, products generated (recombinant human furin; listed as wild type proEla): generated predominantly the mature Ela 11 aa; processing by furin, products generated (recombinant human furin; listed as wild-type proEla 32): generates only the Ela 11 aa; tumor growth / tumor progression (Renca cells [1]; listed as Ela): inhibits tumor progression; tumor growth / tumor progression (Renca cells [1]; listed as wild type proEla): smaller size of tumors; tumor growth / tumor progression (Renca cells [1]; listed as wild-type proEla 32): reduced significantly tumor growth; tumor growth inhibition, wild type compared to mutant (Renca cells [1]): inhibit more efficiently tumor growth while compared to mutant proEla 32; tumor growth inhibition, wild type compared to mutant (Renca cells [1]; listed as Wild type proEla 32): inhibited more efficiently tumor growth while compared to mutant pro Ela 32; cells proliferation (Renca cells [2]): inhibits renca cells proliferation; mTORC1 pathway, determined by S6K and S6 phosphorylation (mTORC1 pathway; listed as WT): sustained activation of mTORC1 pathway; also recorded: induced mTORC1 activation; wound healing of Renca cells (Renca cells [3]): inhibits wound healing of Renca cells; tumor progression (Renca cells [4]): inhibits tumor progression |
| mutant proEla 32: proEla 32 in which cleavage sites R31/R32 and R42/R43 were replaced by S31/S32 and S42/S43 (positions 9, 10, 20, 21 of SEQ ID NO: 1) (QRPVNLTMSSKLRKHNCLQSSCMPLHSRVPFP; listed as Homo sapiens) | reduced | able to induce the phosphorylation of ERK | failed to induce significant effect | lower AKT activation while compared to their effect on ERK activation | about 15 min | weak visible phosphorylation of AKT | enhanced inhibition of ERK signaling | No effect in mTORC2 signaling | block in the induction of autophagy | No effect in PI3K signaling | No effect in NFkB signaling | processing by furin, products generated (recombinant human furin; listed as mut proEla 32): failed to generate any products; processing by furin, products generated (recombinant human furin; listed as mutant peptide ProEla 32): failed to generate any mature Ela products; tumor growth / tumor progression (Renca cells [1]): reduced significantly tumor growth; tumor growth / tumor progression (Renca cells [1]; listed as mut ProEla): smaller size of tumors; tumor growth / tumor progression (Renca cells [1]; listed as mutant ELA polypeptide): capable of inhibiting tumor progression; APJ internalization [5]: able to activate the APJ receptor and mediate its internalization; mTORC1 pathway, determined by S6K and S6 phosphorylation (mTORC1 pathway; listed as MUT): sustained activation of mTORC1 pathway; also recorded: induced mTORC1 activation |
